Read-outs that look alike come from different tables or passages of the source.
Target: T1, CBL-B (Homo sapiens, UniProt Q13191)
T1 construct: GST
Assay: CBL-B TR-FRET IC50 screening (E1/E2 ubiquitination, Biotin-Ubiquitin, Anti GST-Tb donor / Streptavidin-d2 acceptor)
Format: biochemical

[1] = CBL-B 10 nM final, 11-point titration from 100 uM, binned A-F, read-out: CBL-B TR-FRET activity IC50
[2] = second part of Table 2 (head 'Patent Cmpd No / Updated Activity'), same CBL-B TR-FRET IC50 bins A-F, read-out: Updated Activity

T1 sequence (Q13191 whole entry): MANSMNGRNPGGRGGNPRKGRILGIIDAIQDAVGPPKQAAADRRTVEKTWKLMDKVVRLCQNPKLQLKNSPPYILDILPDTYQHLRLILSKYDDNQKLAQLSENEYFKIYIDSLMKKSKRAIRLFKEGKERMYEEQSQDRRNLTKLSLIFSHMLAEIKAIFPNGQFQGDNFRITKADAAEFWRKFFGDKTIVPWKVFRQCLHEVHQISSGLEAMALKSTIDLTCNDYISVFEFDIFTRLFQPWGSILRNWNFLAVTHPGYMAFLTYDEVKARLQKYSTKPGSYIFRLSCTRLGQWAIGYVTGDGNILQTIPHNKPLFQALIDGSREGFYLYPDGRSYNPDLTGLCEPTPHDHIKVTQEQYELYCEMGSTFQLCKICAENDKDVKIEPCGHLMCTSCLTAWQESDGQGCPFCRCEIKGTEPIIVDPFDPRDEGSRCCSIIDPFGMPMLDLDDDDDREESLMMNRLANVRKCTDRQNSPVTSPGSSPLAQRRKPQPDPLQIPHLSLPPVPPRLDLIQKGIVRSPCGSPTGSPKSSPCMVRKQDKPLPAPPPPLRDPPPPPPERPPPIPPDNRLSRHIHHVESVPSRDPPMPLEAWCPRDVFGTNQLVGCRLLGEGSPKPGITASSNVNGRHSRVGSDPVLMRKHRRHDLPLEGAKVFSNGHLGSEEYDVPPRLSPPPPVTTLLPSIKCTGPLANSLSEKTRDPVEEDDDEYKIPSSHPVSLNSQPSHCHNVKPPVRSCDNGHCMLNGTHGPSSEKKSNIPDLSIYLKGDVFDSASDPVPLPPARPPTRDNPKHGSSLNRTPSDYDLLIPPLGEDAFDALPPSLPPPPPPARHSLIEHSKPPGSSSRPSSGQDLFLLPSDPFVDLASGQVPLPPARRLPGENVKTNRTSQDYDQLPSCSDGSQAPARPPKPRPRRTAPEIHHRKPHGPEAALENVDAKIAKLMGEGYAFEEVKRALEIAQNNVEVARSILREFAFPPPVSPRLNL

Structure (SMILES)	IC50 [2] [nM]	further results
CC1CCN(Cc2cc(C(F)(F)F)c3cn(-c4cccc([C@H](c5nncn5C)C5CCC5)c4)c(=O)n3c2)CC1 [Compound 376]	–	IC50 [1]: < 100 nM
CN(C)C(=O)C1CCN(Cc2cc(C(F)(F)F)c3cn(-c4cccc([C@H](c5nncn5C)C5CCC5)c4)c(=O)n3c2)CC1 [Compound 377]	–	IC50 [1]: < 100 nM
Cn1cnnc1[C@@H](c1cccc(-n2cc3c(C(F)(F)F)cc(CN4CCS(=O)(=O)CC4)cn3c2=O)c1)C1CCC1 [Compound 378]	–	IC50 [1]: < 100 nM
C[C@H]1CCCN(C(=O)c2cc(C(F)(F)F)c3cn(-c4cccc([C@H](c5nncn5C)C5CCC5)c4)c(=O)n3c2)C1 [Compound 379]	–	IC50 [1]: < 100 nM
C[C@H]1CCCN1Cc1cc(C(F)(F)F)c2cn(-c3cccc([C@@H](c4nncn4C)C4CCC4)c3)c(=O)n2c1 [Compound 380_P1]	–	IC50 [1]: 1000 to 3000 nM
C[C@H]1CCCN1Cc1cc(C(F)(F)F)c2cn(-c3cccc([C@H](c4nncn4C)C4CCC4)c3)c(=O)n2c1 [Compound 380_P2]	–	IC50 [1]: < 100 nM
C[C@@H]1CCCN1Cc1cc(C(F)(F)F)c2cn(-c3cccc([C@@H](c4nncn4C)C4CCC4)c3)c(=O)n2c1 [Compound 381_P1]	–	IC50 [1]: 1000 to 3000 nM
C[C@@H]1CCCN1Cc1cc(C(F)(F)F)c2cn(-c3cccc([C@H](c4nncn4C)C4CCC4)c3)c(=O)n2c1 [Compound 381_P2]	–	IC50 [1]: < 100 nM
COC[C@@H]1CCCN1Cc1cc(C(F)(F)F)c2cn(-c3cccc([C@@H](c4nncn4C)C4CCC4)c3)c(=O)n2c1 [Compound 382_P1]	–	IC50 [1]: < 100 nM
COC[C@@H]1CCCN1Cc1cc(C(F)(F)F)c2cn(-c3cccc([C@H](c4nncn4C)C4CCC4)c3)c(=O)n2c1 [Compound 382_P2]	–	IC50 [1]: 1000 to 3000 nM
COC(=O)N1CCC(c2cc(C(F)(F)F)c3cn(-c4cccc([C@H](c5nncn5C)C5CCC5)c4)c(=O)n3c2)CC1 [Compound 395]	100 to 300	–
Cn1cnnc1[C@@H](c1cccc(-n2cc3c(C(F)(F)F)cccn3c2=O)c1)C1CCC1 [Compound 401_P2]	> 10000	–
C[C@@H]1CN(Cc2cc(C(F)(F)F)c3cn(-c4cccc([C@H](CC5CCC5)c5nncn5C)c4)c(=O)n3c2)CCO1 [Compound 402]	> 10000	–
C[C@H]1CCCN(Cc2cc(C(F)(F)F)c3cn(-c4cccc([C@H](c5nncn5C)C5CNC5)c4)c(=O)n3c2)C1 [Compound 403]	> 10000	–
Cn1cnnc1[C@@H](c1cc(-n2cc3c(C(F)(F)F)cccn3c2=O)cs1)C1CCC1 [Compound 403_P1]	> 10000	–
Cn1cnnc1[C@H](c1cc(-n2cc3c(C(F)(F)F)cccn3c2=O)cs1)C1CCC1 [Compound 403_P2]	301 to 1000	–
Cn1cnnc1[C@@H](c1cccc(-n2cc3c(C(F)(F)F)cc(C(=O)N4CCC5(CC5)C4)cn3c2=O)c1)C1CCC1 [Compound 429]	100 to 300	–
Cn1cnnc1[C@@H](c1cccc(-n2cc3c(C(F)(F)F)cc(C(=O)N4CCC(C)(F)CC4)cn3c2=O)c1)C1CCC1 [Compound 430]	301 to 1000	–
C[C@H]1CCCN(Cc2cc(C(F)(F)F)c3cn(-c4cccc(Cc5cccnn5)c4)c(=O)n3c2)C1 [Compound 431]	> 10000	–
C[C@@H]1CN(Cc2cc(C(F)(F)F)c3cn(-c4cccc(C5(c6nncn6C)CCC5)c4)c(=O)n3c2)CCO1 [Compound 432]	> 10000	–

Structure (SMILES)	IC50 [2] [nM]	further results
C[C@H]1CCCN(Cc2cc(C(F)(F)F)c3cn(-c4cccc(C5(c6nncn6C)CC(C)(C)C5)c4)c(=O)n3c2)C1 [Compound 433]	–	IC50 (Updated Activity, second part of Table 2 (head 'Patent Cmpd No / Updated Activity'), same CBL-B TR-FRET IC50 bins A-F): < 100 nM
CC(=O)N1CC([C@@H](c2cccc(-n3cc4c(C(F)(F)F)cc(CN5CCC[C@H](C)C5)cn4c3=O)c2)c2nncn2C)C1 [Compound 434_P1]	> 10000	–
CC(=O)N1CC([C@H](c2cccc(-n3cc4c(C(F)(F)F)cc(CN5CCC[C@H](C)C5)cn4c3=O)c2)c2nncn2C)C1 [Compound 434_P2]	1000 to 3000	–
C[C@H]1CCCN(Cc2cc(C(F)(F)F)c3cn(-c4cccc([C@H](c5nncn5C)C5CN(C)C5)c4)c(=O)n3c2)C1 [Compound 470_P1]	> 10000	–
C[C@H]1CCCN(Cc2cc(C(F)(F)F)c3cn(-c4cccc([C@@H](c5nncn5C)C5CN(C)C5)c4)c(=O)n3c2)C1 [Compound 470_P2]	> 10000	–
C[C@H]1CCCN(Cc2cc(C(F)(F)F)c3cn(-c4cccc([C@@H](c5nncn5C)C5CC5)c4)c(=O)n3c2)C1 [Compound 472_P1]	100 to 300	–
[2H]C([2H])(c1cc(C(F)(F)F)c2cn(-c3cccc(C4(Cc5nncn5C)COC4)c3)c(=O)n2c1)N1CCC[C@H](C)C1 [Compound 490]	< 100	–
C[C@@H]1CCCN(Cc2cc(C(F)(F)F)c3cn(-c4cccc([C@H](c5nncn5C)C5CCC5)c4)c(=O)n3c2)C1 [Compound 491]	< 100	–
CN1C(=O)CCN1Cc1cc(C(F)(F)F)c2cn(-c3cccc([C@H](c4nncn4C)C4CCC4)c3)c(=O)n2c1 [Compound 498]	< 100	–
Cn1cnnc1CC1(c2cccc(-n3cc4c(C(F)(F)F)cc(CN5CCC(OCCN)CC5)cn4c3=O)c2)COC1 [Compound 499]	< 100	–
COCCn1ccnc1-c1cc(C(F)(F)F)c2cn(-c3cccc([C@H](c4nncn4C)C4CCC4)c3)c(=O)n2c1 [Compound 502]	< 100	–
Cn1cnnc1[C@@H](c1cccc(-n2cc3c(C(F)(F)F)cc(CN4CCC5(CC4)CC5)cn3c2=O)c1)C1CCC1 [Compound 503]	< 100	–
[2H]C([2H])(c1cc(C(F)(F)F)c2cn(-c3cccc([C@H](c4nncn4C)C4CCC4)c3)c(=O)n2c1)N1CC2(CC2)C1 [Compound 504]	< 100	–
[2H]C([2H])(c1cc(C(F)(F)F)c2cn(-c3cccc([C@H](c4nncn4C)C4CCC4)c3)c(=O)n2c1)N1CCC2(CC2)C1 [Compound 505]	< 100	–
C[C@H]1CCCN([C@H](C)c2cc(C(F)(F)F)c3cn(-c4cccc(C5(c6nncn6C)CCC5)c4)c(=O)n3c2)C1 [Compound 506_P1]	< 100	–
C[C@H]1CCCN([C@@H](C)c2cc(C(F)(F)F)c3cn(-c4cccc(C5(c6nncn6C)CCC5)c4)c(=O)n3c2)C1 [Compound 506_P2]	< 100	–
COC[C@@H]1CCN1Cc1cc(C(F)(F)F)c2cn(-c3cccc([C@H](c4nncn4C)C4CCC4)c3)c(=O)n2c1 [Compound 507]	< 100	–
CN(Cc1cc(C(F)(F)F)c2cn(-c3cccc([C@H](c4nncn4C)C4CCC4)c3)c(=O)n2c1)S(C)(=O)=O [Compound 520]	< 100	–
COC(=O)CN(C)Cc1cc(C(F)(F)F)c2cn(-c3cccc([C@H](c4nncn4C)C4CCC4)c3)c(=O)n2c1 [Compound 521]	< 100	–

Continued, in another order:

IC50 [2] [nM]	Structure (SMILES)	further results
< 100	CC(=O)N1CCC(c2cc(C(F)(F)F)c3cn(-c4cccc([C@H](c5nncn5C)C5CCC5)c4)c(=O)n3c2)CC1 [Compound 398]	–
< 100	Cn1cnnc1[C@H](c1cccc(-n2cc3c(C(F)(F)F)cccn3c2=O)c1)C1CCC1 [Compound 401_P1]	–
< 100	Cn1cnnc1[C@@H](c1cccc(-n2cc3c(C(F)(F)F)cc(CN4CCC5(CC5)C4)cn3c2=O)c1)C1COC1 [Compound 412]	–
< 100	Cn1cnnc1[C@@H](c1cccc(-n2cc3c(C(F)(F)F)cc(CN4CCC(C)(F)CC4)cn3c2=O)c1)C1COC1 [Compound 413]	–
< 100	Cn1cnnc1[C@@H](c1cccc(-n2cc3c(C(F)(F)F)cc(CN4CCC(F)CC4)cn3c2=O)c1)C1COC1 [Compound 414]	–
< 100	COC1CCN(Cc2cc(C(F)(F)F)c3cn(-c4cccc([C@H](c5nncn5C)C5COC5)c4)c(=O)n3c2)CC1 [Compound 415]	–
< 100	C[C@@H]1CCCN(Cc2cc(C(F)(F)F)c3cn(-c4cccc(C5(Cc6nncn6C)COC5)c4)c(=O)n3c2)C1 [Compound 416]	–
< 100	C[C@@H]1C[C@H](C)CN(Cc2cc(C(F)(F)F)c3cn(-c4cccc([C@H](c5nncn5C)C5CCC5)c4)c(=O)n3c2)C1 [Compound 449]	–
< 100	Cn1cnnc1C1(c2cccc(-n3cc4c(C(F)(F)F)cc(CN5CCC6(CC6)C5)cn4c3=O)c2)CCC1 [Compound 450]	–
< 100	Cn1cnnc1C1(c2cccc(-n3cc4c(C(F)(F)F)cc(CN5CC6(CC6)C5)cn4c3=O)c2)CCC1 [Compound 451]	–
< 100	C[C@H]1CCCN(Cc2cc(C(F)(F)F)c3cn(-c4cccc(C(=C5CCC5)c5nncn5C)c4)c(=O)n3c2)C1 [Compound 466]	–
< 100	Cn1cnnc1[C@@H](c1cccc(-n2cc3c(C(F)(F)F)cc(CN4CCCOC4=O)cn3c2=O)c1)C1CCC1 [Compound 467]	–
< 100	Cn1cnnc1[C@@H](c1cccc(-n2cc3c(C(F)(F)F)cc(CN4CCOC4=O)cn3c2=O)c1)C1CCC1 [Compound 468]	–
< 100	COC(=O)N(C)Cc1cc(C(F)(F)F)c2cn(-c3cccc([C@H](c4nncn4C)C4CCC4)c3)c(=O)n2c1 [Compound 469]	–
< 100	Cn1cnnc1C1(c2cccc(-n3cc4c(C(F)(F)F)cc(CN5CCC(C)(F)CC5)cn4c3=O)c2)CCC1 [Compound 471]	–
< 100	C[C@H]1CCCN(Cc2cc(C(F)(F)F)c3cn(-c4cccc([C@H](c5nncn5C)C5CC5)c4)c(=O)n3c2)C1 [Compound 472_P2]	–
< 100	Cn1cnnc1C1(c2cccc(-n3cc4c(C(F)(F)F)cc(CN5CCc6ncsc6C5)cn4c3=O)c2)CCC1 [Compound 473]	–
< 100	CN1CCCN(Cc2cc(C(F)(F)F)c3cn(-c4cccc([C@H](c5nncn5C)C5CCC5)c4)c(=O)n3c2)C1=O [Compound 482]	–
< 100	CN1CCN(Cc2cc(C(F)(F)F)c3cn(-c4cccc([C@H](c5nncn5C)C5CCC5)c4)c(=O)n3c2)C1=O [Compound 483]	–
< 100	CN(C)C(=O)N(C)Cc1cc(C(F)(F)F)c2cn(-c3cccc([C@H](c4nncn4C)C4CCC4)c3)c(=O)n2c1 [Compound 484]	–
< 100	[2H]C([2H])(c1cc(C(F)(F)F)c2cn(-c3cccc([C@H](c4nncn4C)C4CCC4)c3)c(=O)n2c1)N1CCC[C@H](C)C1 [Compound 487]	–
< 100	C[C@H]1COCCN1Cc1cc(C(F)(F)F)c2cn(-c3cccc([C@H](c4nncn4C)C4CCC4)c3)c(=O)n2c1 [Compound 488]	–
< 100	C[C@@H]1COCCN1Cc1cc(C(F)(F)F)c2cn(-c3cccc([C@H](c4nncn4C)C4CCC4)c3)c(=O)n2c1 [Compound 489]	–
